From patent publication US4001223A, “Adamantane-piperazine derivatives” (Idemitsu Kosan Co., Ltd., priority 1975, dated 1977)
“Also recorded” adds a separate entry of the source. Each block holds one compound with its values, some of them ahead of it.

How the values were obtained:
Hypotensive action = type: in vivo; settings: for dose showing hypotensive action: in vivo
[1] = test system: Small intestine excised from guinea-pigs; assay: Inhibition of BaCl2-induced contraction of isolated smooth muscle (small intestine excised from guinea-pigs); settings: contracting substance BaCl2 2.00×10^-3 g/ml; effective concentration 1×10^-4 g/ml
[2] = test system: Vessels excised from guinea-pigs; assay: Inhibition of adrenalin-induced contraction of isolated smooth muscle (vessels excised from guinea-pigs); settings: contracting substance Adrenalin 2.86×10^-6 g/ml; effective concentration 1×10^-5 g/ml
[3] = Solubility in aqueous solution of tartaric acid (aptitude test as an injection); type: physicochemical; settings: 0.25 weight percent
Procedure: For the purpose of examining the solubility of the new compound N-(1-adamantyl methyl)-N'-cinnamyl piperazine in an aqueous solution of tartaric acid, the aqueous solutions in which 2, 4, 6 and 8 times molar of tartaric acid based on 1 mol of the new compound were contained were prepared and the compound was added so that its concentration should be 0.25 weight percent to each aqueous solution. Each aqueous solution was heated to 80° C and allowed to cool to a room temperature (about 20° C), then the solubility was evaluated. […] In addition, the pH value of 0.25 weight percent aqueous solution of the compound prepared by using 2 times mol of tartaric acid based on 1 molar of the compound was 3.10 and when an alkali was added to the aqueous solution, crystals began to separate at pH 3.80.

[4] = test system: Small intestine excised from guinea-pigs; assay: Inhibition of histamine-induced contraction of isolated smooth muscle (small intestine excised from guinea-pigs); settings: contracting substance Histamine 1.00×10^-7 g/ml; effective concentration 1×10^-4 g/ml
in vivo = settings: for LD50: mouse, in vivo
[5] = Effect on cerebral blood flow in cats; type: in vivo; settings: cats weighing about 3 kg
Source text: (§1) The action on cerebral blood flow and muscular blood flow was examined with cats weighing about 3 kg.

isolated smooth muscle = assay: Effect on contraction of isolated smooth muscle, overall; design: species or system guinea-pigs
[6] = Stability in aqueous solution of tartaric acid; type: physicochemical
Procedure: After heating a 0.25 weight percent aqueous solution of the new compound N-(1-adamantyl methyl)-N'-cinnamyl piperazine prepared by using 2 times mol of tartaric acid based on 1 mol of this compound, the solution was allowed to cool to a room temperature (about 20° C). Then, the pH value was adjusted to 8-9 with 1/10 N aqueous solution of sodium hydroxide.

[7] = test system: Small intestine excised from guinea-pigs; assay: Inhibition of acetylcholine-induced contraction of isolated smooth muscle (small intestine excised from guinea-pigs); settings: contracting substance Acethylcholine 5.43×10^-4 g/ml; effective concentration 8.75×10^-6 g/ml
[8] = Effect on muscular blood flow in cats; type: in vivo; settings: cats weighing about 3 kg
Source text: as §1

[9] = 0.25 weight percent, 2 times mol tartaric acid, heated, cooled, pH adjusted to 8-9, room temperature for 7 days

dose showing hypotensive action (Hypotensive action): 0.5 mg/kg
SMILES: C(=C\c1ccccc1)/CN1CCN(C(c2ccccc2)c2ccccc2)CC1 [Cinnarizine, reference compound]

SMILES: C(=C\c1ccccc1)/CN1CCN(CC23CC4CC(CC(C4)C2)C3)CC1 [N-(1-adamantylmethyl)-N'-cinnamyl piperazine]
Inhibitory rate [1]: 77.23%
Inhibitory rate [2]: 3.10%
pH value of aqueous solution ([3]; 2 times mol of tartaric acid): 3.10
pH at which crystals began to separate ([3]; 2 times mol of tartaric acid, alkali added): 3.80
solubility ([3]; aqueous tartaric acid, 2, 4, 6 and 8 times molar, heated to 80° C, cooled to about 20° C): soluble in all of the above aqueous solutions of tartaric acid
Inhibitory rate [4]: 95.0%
toxicity (in vivo; general statement): low toxicity; also recorded: very low toxicity compared with conventional cerebral vasodilators
LD50 (in vivo; iv): 78.8 mg/kg
LD50 (in vivo; po): > 10000 mg/kg
blood flow of cerebral cortex ([5]; 1 mg/kg): clearly increased blood flow of cerebral cortex
action on blood flow of cerebral cortex compared with Cinnarizine ([5]; versus Cinnarizine 1 mg/kg): more significant than that induced by Cinnarizine
smooth muscle relaxing action (isolated smooth muscle): recognized to possess smooth muscle relaxing action
change in infrared absorption spectrum and nuclear magnetic resonance spectrum [6, 9]: No change
stability by thin layer chromatography [6, 9]: unaffected
stability against heat, alkali and acid ([6]; general statement): good stability against heat, alkali and acid; also recorded: high stability against heat, alkali and acid
stability in an aqueous solution of tartaric acid ([6]; overall conclusion): exist stably in an aqueous solution of tartaric acid
Inhibitory rate [7]: 25.0%
side effects such as an excessive hypotension (Hypotensive action; general statement): little side effects such as an excessive hypotension
dose showing hypotensive action (Hypotensive action): > 5 mg/kg
hypotensive action compared with Cinnarizine (Hypotensive action; versus Cinnarizine): clearly weaker than that of Cinnarizine
blood flow of gastrocnemius muscle [8]: clearly increased blood flow of gastrocnemius muscle
action on blood flow of gastrocnemius muscle compared with Cinnarizine ([8]; versus Cinnarizine): more significant than that of Cinnarizine
